Marks after values point to notes of the source that are not given here.

The text below walks through data of PMC7502707, “Characterization and validation of a preventative therapy for hypertrophic cardiomyopathy in a murine model of the disease” (Proceedings of the National Academy of Sciences of the …, 2020).

Assay [1] relates to myocytes isolated from wt and cTnI-G203S mice. In words: Mitochondrial membrane potential (JC-1) in myocytes isolated from treated mice. Format: in vivo, mouse.
Assay [2] has the same test system. As to the kind of experiment: MTT assay (formation of formazan) in myocytes isolated from treated mice. Format: in vivo, mouse. To be noted: for effect on metabolic activity (MTT): myocytes from wt or cTnI-G203S mice treated with AID(S)-TAT or AID-TAT, oligomycin 20 µM; for effect on BayK(−)-induced increase in metabolic activity (MTT): applied to myocytes from treated mice, nisoldipine 15 μM, Ru360 15 µM, dantrolene 20 µM. Here is the method:
The rate of reduction of MTT (Sigma-Aldrich) to formazan by the mitochondrial electron transport chain was measured in intact mouse cardiac myocytes, as previously described ([22], [25]). Each n represents number of replicates for each treatment group from cardiac myocytes isolated from a total of six wt [AID(S)-TAT], four cTnI-G203S [AID(S)-TAT], and three (AID-TAT) mice. Detailed methods are provided in SI Appendix. […]
The rate of reduction of 3-(4,5-Dimethyl-2-thiazolyl)-2,5-diphenyl-2H-tetrazolium bromide (MTT, Sigma-Aldrich, St. Louis, Missouri) to formazan by the mitochondrial electron transport chain was measured in intact mouse cardiac myocytes as previously described (1, 9). This reaction is dependent upon the presence of reduced nicotinamide adenine dinucleotide (NADH) and reduced nicotinamide adenine dinucleotide phosphate (NADPH), and intact mitochondrial electron transport (10). Cardiac myocytes were treated with relevant drugs in 96 well plates. MTT was added to each well to a final concentration of 0.5 mg/ml and the rate of the increase in absorbance immediately measured using a spectrophotometer at 37°C (PowerWave XS, 570 nm, reference wavelength of 620 nm). The rate of the increase in absorbance in response to treatments was expressed as a percentage of the rate of the increase prior to the addition of treatments. Each n represents number of replicates for each treatment group from cardiac myocytes isolated from a total of 6 wt (AID[S]- TAT), 4 cTnI-G203S (AID[S]-TAT), and 3 (AID-TAT) mice.
Immunoblot of ICa-L protein

Assay [3] has as its system mice expressing β-MHC mutations. The note with it: precardiomyopathic mice expressing β-MHC mutations, compared to untreated mutants; cited from earlier work. The text has this: Patients with HCM often present with early hypercontractility that stems from a high-degree of actin–myosin cross-linking ([36]). […] Recent studies have investigated the efficacy of a cardiac-specific small-molecule, Mavacamten (MYK-461), that inhibits β-MHC/actin binding and subsequently reduces sarcomere force output and contractility ([39], [40]), as a potential HCM therapeutic. Treatment of precardiomyopathic mice expressing β-MHC mutations with M ...

The test system of assay [4] is myocytes isolated from wt and cTnI-G203S mice. As to the kind of experiment: Flavoprotein oxidation in myocytes isolated from treated mice. Format: in vivo, mouse. The note with it: applied to myocytes from treated wt or cTnI-G203S mice; nisoldipine 15 μM.
Method: Male mice expressing the human cTnI gene encoding the human disease-causing mutation cTnI-G203S were used for all studies. […] Male mice expressing the normal human cTnI gene were used as controls (wt). Ten-week-old mice were used for in vitro studies. For in vivo studies, 20- or 30-wk-old cTnI-G203S mice were treated with 10 μM AID-TAT or AID[S]-TAT via intraperitoneal injection, 3×/wk/5 wk. In vivo dose of AID-TAT or AID[S]-TAT (10 μM) was calculated based on blood volume, equating to ∼2 mg/kg total BW. Male animal models were used to eliminate potential differences in responses due to sex. Experiments were performed in a total of 21 wt (AID[S]-TAT), 6 wt (AID-TAT), 15 cTnI-G203S (AID[S]-TAT), and 26 cTnI-G203S (AID-TAT) mice. All animals were randomly assigned to treatment groups.
Fluorescence was measured on a Hamamatsu Orca ER digital camera attached to an inverted Nikon TE2000-U microscope. […]
Additionally, individual 580 nm and 535 nm wavelength signals were assessed in each experiment to determine whether the fluorescent indicator was accurately measuring m. […] Ratiometric JC-1 or flavoprotein fluorescent signals were quantified by manually tracing myocytes and subtracting an equivalent background region […]
In the next assay the test system is wt mice. As to the kind of experiment: Echocardiography of treated wt mice. The note with it: 25-wk-old wt mice, 10 μM i.p. 3×/wk/5 wk from 20 wk; mean, n = 4. Format: in vivo, mouse. Here is the method:
(§1) Male mice expressing the human cTnI gene encoding the human disease-causing mutation cTnI-G203S were used for all studies. The mice develop hallmark features of HCM by 21 wk ([7], [13]). Male mice expressing the normal human cTnI gene were used as controls (wt). Ten-week-old mice were used for in vitro studies. For in vivo studies, 20- or 30-wk-old cTnI-G203S mice were treated with 10 μM AID-TAT or AID[S]-TAT via intraperitoneal injection, 3×/wk/5 wk. In vivo dose of AID-TAT or AID[S]-TAT (10 μM) was calculated based on blood volume, equating to ∼2 mg/kg total BW. Male animal models were used to eliminate potential differences in responses due to sex. Experiments were performed in a total of 21 wt (AID[S]-TAT), 6 wt (AID-TAT), 15 cTnI-G203S (AID[S]-TAT), and 26 cTnI-G203S (AID-TAT) mice. All animals were randomly assigned to treatment groups. All animal studies were approved by the Animal Ethics Committee of The University of Western Australia in accordance with the 2013 Australian Code for the Care and Use of Animals for Scientific Purposes ([58]).
(§2) Echocardiographic measurement of left ventricular function were performed on mice under light methoxyflurane anesthesia using an i13L probe on a Vivid 7 Dimension ultrasound system (GE Healthcare), as previously described ([13], [29], [30]). Each n represents the average of quantitative measurements from wt or cTnI-G203S mice for each treatment group. Detailed methods are provided in SI Appendix.
(§3) Echocardiographic measurement of left ventricular function were performed on mice under light methoxyflurane anesthesia using an i13L probe on a Vivid 7 Dimension ultrasound system (GE Healthcare, Little Chalfont, United Kingdom) as previously described (4, 7). Echocardiographic measurements were taken on M-mode in triplicate from separate mice at a sweep speed of 200 mm/s. Each n represents the average of quantitative measurements from wt or cTnI-G203S mice for each treatment group. Measurements of left ventricular end diastolic diameter (LVEDD), left ventricular end systolic diameter (LVESD), fractional shortening (FS), left ventricular posterior wall in diastole (LVDPW), left ventricular posterior wall in systole (LVSPW), interventricular septum in diastole (IVSD), interventricular septum in systole (IVSS) and end diastolic diameter (EDD) were made. FS was calculated by the formula [(LVEDD-LVESD)/EDD] x 100. […]
(§4) (BioAssay Systems, Hayward CA). All assays were performed as per manufacturer’s instructions, using a spectrophotometer (PowerWave XS).

For assay [5], the system named is myocytes isolated from wt and cTnI-G203S mice. As to the kind of experiment: Confocal imaging of F-actin (phalloidin) in myocytes from treated mice. Format: in vivo, mouse. The note with it: myocytes from cTnI-G203S mice treated 10 μM 3×/wk/5 wk, Pre HCM Rx. Here is the method: Following completion of treatment regimens, myocytes were isolated and prepared for confocal imaging based on previously described methods ([29]). Detailed methods are provided in SI Appendix.
Echocardiographic measurement of left ventricular function were performed on mice under light methoxyflurane anesthesia using an i13L probe on a Vivid 7 Dimension ultrasound system (GE Healthcare, Little Chalfont, United Kingdom) as previously described (4, 7). Echocardiographic measurements were taken on M-mode in triplicate from separate mice at a sweep speed of 200 mm/s. Each n represents the average of quantitative measurements from wt or cTnI-G203S mice for each treatment group. […] FS was calculated by the formula [(LVEDD-LVESD)/EDD] x 100.
Cell size was determined as previously described (16). […]
To measure kidney toxicity, urea and creatinine concentration was assessed using QuantiChrom Urea and Creatinine assay kits respectively (BioAssay Systems, Hayward CA). To measure liver toxicity, alanine transaminase (ALT) and aspartate transaminase (AST) concentration was measured using Alanine Transaminase and Aspartate Transaminase assay kits respectively (BioAssay Systems, Hayward CA). […]

Another assay relates to cTnI-G203S mice. In words: Echocardiography of treated cTnI-G203S mice. Format: in vivo, mouse. The note with it: Pre-HCM treatment (from 20 wk), 25-wk-old cTnI-G203S mice, 10 μM i.p. 3×/wk/5 wk; mean, n = 7 AID(S)-TAT, n = 6 AID-TAT. Here is the method: as §1, §2, §3, §4

For the molecule `COC(=O)C1=C(C)NC(C)=C([N+](=O)[O-])C1c1ccccc1C(F)(F)F` (stereo not drawn) [BayK(+), reference compound], in assay [1] (myocytes from wt or cTnI-G203S mice treated with AID(S)-TAT or AID-TAT), the “effect on Ψm” value is “did not significantly alter Ψm”. Further, in assay [2], the “effect on metabolic activity (MTT)” value is listed as “did not significantly alter metabolic activity”.
Take `CC(C)n1c(=O)cc(N[C@@H](C)c2ccccc2)[nH]c1=O` [MYK-461, Mavacamten]: in assay [3], the “left ventricular wall thickness, FS, fibrosis and myocyte organization” value was “reduce left ventricular wall thickness, FS, and fibrosis, and improve myocyte organization”.
In the case of `CC[C@H]1/C=C/C=C/C[C@@H](C)[C@H](O)[C@@](C)(O)C(=O)[C@@H](C)[C@H](O)[C@@H](C)C(=O)[C@@H](C)[C@H](O)[C@@H](C)/C=C/C(=O)O[C@@H]2[C@H](C)[C@H](CC1)O[C@]1(CC[C@H](C)[C@H](C[C@@H](C)O)O1)[C@H]2C` [Oligomycin], the “effect on metabolic activity (MTT)” value in assay [2] is “significant decrease in metabolic activity”.
`O=C1CN(/N=C/c2ccc(-c3ccc([N+](=O)[O-])cc3)o2)C(O)=N1` [dantrolene]: the “effect on BayK(−)-induced increase in metabolic activity (MTT)” value (“effect on BayK(−)-induced increase … (MTT)” for short) in assay [2] was “but not with ryanodine receptor blocker dantrolene”.
In the case of `COC(=O)C1=C(C)NC(C)=C(C(=O)OCC(C)C)C1c1ccccc1[N+](=O)[O-]` (centres unmarked) [nisoldipine, reference compound], in assay [1] (applied to myocytes from treated wt or cTnI-G203S mice, nisoldipine 15 μM), the “effect on BayK(−)-induced increase in Ψm” value is recorded as “attenuated”. For the same molecule, the “effect on BayK(−)-induced increase … (MTT)” value in assay [2] is “attenuated”. The “effect on BayK(−)-induced increase in flavoprotein oxidation” value in assay [4] is “attenuated”.
Regarding “QKILGEWDLAQYTDQELE [AID(S)-TAT, reference compound]”, in the assay on wt mice, the FS was determined as 35.08%, the “HW:BW” value is recorded as 4.33 mg/g, the IVSD stood at 0.76 mm and the IVSS is recorded as 0.86 mm. In the assay on wt mice, this molecule gave an LVDPW of 1.26 mm, an LVEDD of 3.56 mm, an LVESD of 2.31 mm and an LVSPW of 1.42 mm. Also, the F-actin organization entry in assay [5] was “F-actin disorganization”. Besides, in the assay with cTnI-G203S mice, the FS is given as 47.39 ^* %, the “HW:BW” value is recorded as 5.14 ^* mg/g, the IVSD is recorded as 0.85 ^* mm and the IVSS was 0.96 ^* mm. In the assay with cTnI-G203S mice, the LVDPW is 1.31 mm, the LVEDD was 3.08 ^* mm, the LVESD is 1.62 ^* mm and the LVSPW is 1.43 mm.
With Ru360, the “effect on BayK(−)-induced increase … (MTT)” value in assay [2] is recorded as “attenuated”.
